Test results published in patent publication US20260364186A1, “Chemical Conjugates, Compositions, and Methods of Preparation and Use Thereof” (Transfection Holdings Limited, priority 2022, published 2026).
Entries after “also recorded” stand apart in the source; their conditions may differ.

Assays:
Format in all cases: cell-based, human
Jurkat cells = assay: FACS uptake of BODIPY FL conjugates in Jurkat cells (Example 3); settings: 200 nM
Description: FIG. 3B: Conjugate compounds coupled to BODIPY FL were tested for uptake using 200 nM each conjugate and 5 minute incubation with immortalized T lymphocyte cell line, Jurkat cells. Mean fluorescent intensities (MFI). 1,000 cells sorted by FACS. Bars represent mean±SD. Results represent a single experiment done in duplicate.
Materials and methods: Jurkat cells have been previously shown to be defective in the expression of two lipid phosphatases, PTEN (phosphatase and tensin homologue) and SHIP (SH2-domain-containing inositol polyphosphate 5′ phosphatase). The biological implications of SHIP deficiency in T cells remain under evaluation, but the loss of PTEN leads to activation of the phosphatidylinositol 3-kinase (PI3K)-signalling pathway. See Abraham and Weiss, 2004. This activation of PI3K protein is also on NZM40 melanoma cell line, and represents a key mutation for its sustained proliferation. See Silva et al., 2017. For these experiments, Jurkat cells were diluted on RPMI media (supplemented with 10% FBS+1% penicillin-streptomycin) to afford 400 cells/μL. 2 μL of 100 μM stock solutions in DMSO from 138 and pantothenic acid/pantothenic acid derivatives coupled to BODIPY were diluted with 998 μL of RPMI media (supplemented with 10% FBS+1% penicillin-streptomycin) to afford 200 nM solution. 100,000 cells were dispensed to Eppendorf tubes, centrifuged for 1.5 min at 5000 rcf and the supernatant was removed. The cells then were incubated with 500 μL of solutions at 200 nM for 4.5 min and 37 °C. After the incubation time, cells were centrifuged for 1.5 minutes at 5000 rcf. Supernatant was removed and cell pellet re-suspended in 200 μL fresh RPMI media, transferred to 96 well-plate and run on FACS machine, approximately 1,000 cells analysed.

[1] = tested on: NZM9 (BRAF and NRAS wildtype) melanoma cells; assay: FACS uptake of BODIPY FL conjugates, 200 nM, 5 min (Example 2)
Description: (§1) FIG. 2. Conjugate compounds coupled to BODIPY FL were tested for uptake using 200 nM each conjugate and 5 minute incubation with melanoma cell line NZM11 (BRAF V600E mutant metastatic melanoma), melanoma cell line NZM40 (NRAS Q16H mutant metastatic melanoma) and melanoma cell line NZM9 (BRAF and NRAS wildtype metastatic melanoma). Mean fluorescent intensities (MFI). 2,000 cells (NZM11), 1,000 cells (NZM40) and 500-1,000 cells (NZM9). Cells were sorted by FACS. Bars represent mean±SD. Results were from a single experiment done in triplicate.
NZM9 is an adherent cell line which was originally derived from a metastatic melanoma from a patient (from axillary lymph node, source: Cellosaurus database). These cancer cells are BRAF and NRAS wild type. NZM9 present a mutation on gene TP53, which is the most frequent in human cancers, on 179C/T. This gene encodes the synthesis of protein p53 which acts as a tumour suppressor. See Tran et al., 2021; Levine and Owen, 2009; Duffy and Crown, 2021.
(§2) For screening, NZM11, NZM40 and NZM9 cells were suspended at […] dispensed into 96 well plates and left to settle for 48 hours. Then, 10 μL of 10 mM stock solutions in DMSO for the conjugates were diluted with HBSS to afford 400 nM solution. Next, 400 nM compounds and DMSO solutions were diluted 1:1 with MEMα media to afford 200 nM solutions. After 48 hours the media was removed from the 96 well plates and 200 μL of 200 nM conjugates solutions dispensed to each well (in triplicate) and incubated for 5 minutes at 37 °C. After 5 minutes, the media was removed and cells washed with PBS. Then, 100 μL of TrypLE trypsin (ThermoFisher Scientific) were added to each well and incubated for 5 minutes at 37 °C after which, 100 μL of MEMα media were added and samples were sorted through FACS biosort. The FACS results output were represented as the mean of the fluorescence intensities (in arbitrary units) measured for cells sorted in every sample.

[2] = tested on: NZM11 (BRAF V600E) melanoma cells; assay: Time course of uptake by FACS (Example 5); settings: 200 nM; for uptake / intensities, in words: NZM11, time course
Description: FIG. 5A: Time course of uptake for 124, 125, 131, 132 conjugate compounds. Tests were performed using 200 nM each conjugate and 5, 30, or 60 minute incubation with melanoma cell line NZM11 (BRAF V600E mutant metastatic melanoma). Mean fluorescent intensities (MFI), n=300 mean±SD. The cells were sorted by FACS.
FIG. 5B: Time course of uptake for 124 and 3-azido BODIPY FL. Tests were performed using 200 nM each compound and 1 or 3 hour incubation with melanoma cell line NZM11 (BRAF V600E mutant metastatic melanoma). Mean fluorescent intensities (MFI). n=2000-3000 mean±SD. The cells were sorted by FACS.
Materials and methods: NZM11 cells were suspended at […] dispensed into 96 well plates and left to settle for 48 hours. 10 μL of 10 mM stock solutions in DMSO from the conjugates coupled to BODIPY were diluted with HBSS to afford 400 nM solution. Then, 400 nM compounds and DMSO solutions were diluted 1:1 with MEMα media to afford 200 nM solutions. After 48 hours the media was removed from the 96 well plates and 200 μL of 200 nM conjugates solutions dispensed to each well (in duplicate) and incubated for 5 minutes, 30 minutes and 60 minutes at 37 °C (for the first test) or 60 minutes and 3 hours (for the second test). After indicated incubation time, the media was removed and cells washed with PBS. 100 μL of TrypLE trypsin (ThermoFisher Scientific) were added to each well and incubated for 6.5 minutes at 37 °C after which, 100 μL of MEMα media were added and samples were sorted through FACS biosort. FACS results output represented the mean of the fluorescence intensities (in arbitrary units) measured for cells sorted in every sample. Uptake rate was calculated by the equation: Uptake rate=(MFI2−MFI1)/(T2−T1)
whereby: MFI=mean fluorescent intensities; T=time (at which time the sample was taken); Uptake rate units: fluorescence intensities units per minute.

[3] = tested on: NZM40 (NRAS Q16H) melanoma cells; assay: FACS uptake of BODIPY FL conjugates, 200 nM, 5 min (Example 2)
Description: as §1
NZM40 is an adherent cell line which was originally derived from a metastatic melanoma from a patient, in 2004. This human metastatic melanoma is identified with code CBA-1381 from Cell bank Australia. […] Ras is a superfamily of proteins implicated in cell growth, survival and differentiation. NRAS (neuroblastoma rat sarcoma) was the first oncogene recognized in melanoma and mutations in NRAS account for 20% of all melanomas. NRAS mutations primarily occur at position 61 and involve amino acid change from glutamine (Q) to arginine (R), lysine (K), leucine (L) or histidine (H). These mutations block NRAS into a GTP-bound state damaging its GTPase activity (FIG. 1). Patients are usually older (>55 years) with previous UV exposure. See Garcia-Alverez et al., 2021.
as §2

| SMILES | uptake / targeting (Jurkat cells) | intensities compared to 125 and 127 (Jurkat cells; vs 125 and 127) | higher fluorescence intensities compared to enantiomer 126 [1] [times] | uptake (fluorescence intensities) [1] | lower intensities at 3 hour than 60 minute incubation ([2]; NZM11) [%] | time after which uptake presents saturation ([2]; NZM11) [min] | time at which highest intensities were reached ([2]; NZM11) [min] | uptake / intensities, in words [2] | uptake rate ([2]; after five minutes) [units per minute] | uptake rate ([2]; at 30 minutes) [units per minute] | uptake rate ([2]; at 60 minutes) [units per minute] | higher fluorescence intensities compared to enantiomer 126 [3] [times] | uptake (fluorescence intensities) [3] | times lower uptake rate, as compared to 124 ([2]; NZM11) [times] |
| --- | --- | --- | --- | --- | --- | --- | --- | --- | --- | --- | --- | --- | --- | --- |
| CC1=CC(C)=[N+]2C1=Cc1ccc(CCCn3cc(CCNC(=O)/C=C/NC(=O)[C@H](O)C(C)(C)CO)nn3)n1[B-]2(F)F [Compound 124] | highest uptake | two times higher | 7 | highest intensities; also recorded: best targeting activity | 4 | 60 | 60 | outstanding uptake; also recorded: rapid at the first minutes of incubation | 45 | 23 | 1 | 13 | highest intensities; also recorded: best targeting activity |  |
| CC1=CC(C)=[N+]2C1=Cc1ccc(CCCn3cc(CCNC(=O)/C=C/NC(=O)[C@@H]4OC(C)(C)OCC4(C)C)nn3)n1[B-]2(F)F [Compound 125, (R,E)-N-((((3-[4,4-difluoro-5,7-dimethyl-4-bora-3a,4a-diaza-s-indacene-3-yl]propyl)-1H-1,2,3-triazol-4-yl)eth-ylamino)-3-oxoprop-1-enyl)-2,2,5,5-tetramethyl-1,3-dioxane-4-carboxamide] | showed targeting |  |  | selective uptake; also recorded: significant uptake |  |  | 60 |  |  |  |  |  | selective uptake; also recorded: significant uptake | 7 |
| CC1=CC(C)=[N+]2C1=Cc1ccc(CCCn3cc(CCNC(=O)/C=C\NC(=O)[C@H]4OC(C)(C)OCC4(C)C)nn3)n1[B-]2(F)F [Compound 131, (Z)—N-((((3-[4,4-Difluoro-5,7-dimethyl-4-bora-3a,4a-diaza-s-indacene-3-yl]propyl)-1H-1,2,3-triazol-4-yl)ethylamino)-3-oxoprop-1-enyl)-2,2,5,5-tetramethyl-1,3-dioxane-4-carboxamide] | showed targeting |  |  |  |  |  |  | non-significant intensities |  |  |  |  | showed selectivity |  |
